Consider six molecules from patent US4404217A, “3-Indolyl alkylene amino propanols and cardiovascular compositions thereof” (C. M. Industries, priority 1979, dated 1983).

T3 sequence (P10608 whole entry): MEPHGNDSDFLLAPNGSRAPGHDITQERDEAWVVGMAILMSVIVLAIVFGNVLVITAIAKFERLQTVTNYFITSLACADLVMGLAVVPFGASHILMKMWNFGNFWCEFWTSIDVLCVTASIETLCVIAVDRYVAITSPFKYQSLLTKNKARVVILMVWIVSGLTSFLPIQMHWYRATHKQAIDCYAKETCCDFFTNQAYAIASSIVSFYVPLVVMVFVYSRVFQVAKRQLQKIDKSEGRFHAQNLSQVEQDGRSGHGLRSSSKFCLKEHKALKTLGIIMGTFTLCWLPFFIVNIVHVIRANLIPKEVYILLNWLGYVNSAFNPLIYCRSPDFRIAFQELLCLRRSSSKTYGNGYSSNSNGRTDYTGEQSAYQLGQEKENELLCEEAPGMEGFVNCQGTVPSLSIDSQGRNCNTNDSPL

In one assay the target is T1, β adrenergic receptors (β1) (Canis lupus familiaris, UniProt P79148).
T1 construct: The dog is anaesthetized using sodium pentobarbital; from tissue; host or cells: whole anaesthetized dog (heart)
T1 sequence (P79148 whole entry): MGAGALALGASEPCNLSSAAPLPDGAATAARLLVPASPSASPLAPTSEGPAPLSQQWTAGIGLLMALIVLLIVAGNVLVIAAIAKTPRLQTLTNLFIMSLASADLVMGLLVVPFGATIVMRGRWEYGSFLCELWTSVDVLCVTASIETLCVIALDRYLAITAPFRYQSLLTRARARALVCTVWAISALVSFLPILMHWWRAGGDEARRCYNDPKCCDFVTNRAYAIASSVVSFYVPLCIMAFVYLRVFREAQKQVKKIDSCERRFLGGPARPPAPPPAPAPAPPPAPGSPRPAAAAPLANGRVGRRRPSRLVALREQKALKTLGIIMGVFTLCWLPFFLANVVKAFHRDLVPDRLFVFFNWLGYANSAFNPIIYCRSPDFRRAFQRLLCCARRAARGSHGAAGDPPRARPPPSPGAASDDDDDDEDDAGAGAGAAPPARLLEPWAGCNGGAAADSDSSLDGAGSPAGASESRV
Nature of the assay: Antagonism of the effects of isoprenaline, tachycardia (β1), anaesthetized dog, IV. The class given is in vivo. Conditions: dog, IV; 50% inhibition of isoprenaline tachycardia; read-out: ID50 ISOPRENALINE β1.
In the case of `Cc1ccccc1OC[C@@H](O)CN[C@H](CO)Cc1c[nH]c2ccccc12` [compound 7898], the ED50 was in the range of 0.1 to 0.3 mg/kg.
Still for that read-out and setting: the value for `Cc1ccccc1OC[C@H](O)CN[C@@H](CO)Cc1c[nH]c2ccccc12` [compound 7902] was more than 3 mg/kg; that for `Cc1ccccc1OC[C@@H](O)CN[C@@H](CO)Cc1c[nH]c2ccccc12` [compound 7899] was 0.3 mg/kg; that for `NC(=O)Cc1ccc(OCC(O)CNCCc2c[nH]c3ccccc23)cc1` (centres unmarked) [compound 7748] was 1 to 3 mg/kg.
`Cc1ccccc1OCC(O)CNC(C)(C)Cc1c[nH]c2ccccc12` (centres unmarked) [compound 7854]: the ED50 lay in the range of 0.01 to 0.1 mg/kg.

The same assay, now with this note: dog, IV; isoprenaline antagonism, β1 versus β2.
As to `Cc1ccccc1OC[C@@H](O)CN[C@H](CO)Cc1c[nH]c2ccccc12` [compound 7898], the “cardioselectivity β1 - β2” value is “β1 ≥ β2 (low cardioselectivity β1 ≥β2)”.
On the same count and under the same terms, the value for `CCC(=O)c1ccc(OCC(O)CNC(C)Cc2c[nH]c3ccccc23)c(Cl)c1` (centres unmarked) [compound 7743] was “β1 ≥ β2 (low cardioselectivity β1 ≥β2)”; that for `Cc1ccccc1OC[C@H](O)CN[C@@H](CO)Cc1c[nH]c2ccccc12` [compound 7902] was “β1 < β2 (no cardioselectivity β1 <β2)”; that for `Cc1ccccc1OC[C@@H](O)CN[C@@H](CO)Cc1c[nH]c2ccccc12` [compound 7899] was “β1 ≥ β2 (low cardioselectivity β1 ≥β2)”.
Same read-out and setting: the result for `NC(=O)Cc1ccc(OCC(O)CNCCc2c[nH]c3ccccc23)cc1` (centres unmarked) [compound 7748] reads “β1 > β2 (cardioselectivity (β1 >β2))”; that for `Cc1ccccc1OCC(O)CNC(C)(C)Cc1c[nH]c2ccccc12` (centres unmarked) [compound 7854], “β1 ≥ β2 (low cardioselectivity β1 ≥β2)”.

Staying with this assay, now noted: dog, iv, read-out: ID50 ISOPRENALINE β1.
`CCC(=O)c1ccc(OCC(O)CNC(C)Cc2c[nH]c3ccccc23)c(Cl)c1` (centres unmarked) [compound 7743]: the ED50 lay within 1 to 3 mg/kg.

The assay is the same for the next values; noted with them: test with isoprenaline.
Regarding `NC(=O)Cc1ccc(OCC(O)CNCCc2c[nH]c3ccccc23)cc1` (centres unmarked) [compound 7748], the “cardioselective in vivo (selectively inhibit the cardiac receptors)” value is listed as “cardioselective in vivo”.

A further assay deals with T2, β1 receptor (Canis lupus familiaris, UniProt P79148).
T2 construct: plasmic membranes of hearts of dogs (β1 receptor); from tissue; host or cells: dog heart plasma membranes
T2 sequence (P79148 whole entry): as above
Nature of the assay: Displacement of 3H dihydroalprenolol, plasmic membranes of hearts of dogs. The class given is binding, dog. Conditions: dog heart membranes; 3H dihydroalprenolol 4×10^-9 M. On the procedure:
(§1) The binding tests are effected on suspensions of plasmic membranes coming from various organs. The suspensions of membranes are placed in incubation with the tritiated ligand and various concentrations of products to be tested. After incubation, each test is filtered on GFB(Whatman) filter, the filters are dried and introduced into counting flasks. The measurement of the radioactivity is assessed by scintillation in a liquid medium.
(§2) The tests were made on plasmic membranes of hearts of dogs (β1 receptor) and lungs of rats (β2 receptors), in the presence of ^3 H dihydroalprenolol 4×10^-9 M.
In general terms: In a radioligand displacement assay an active substance lowers the binding of a labelled ligand.
Usually EC50 stands for the concentration giving half of the maximal effect. In turn, `Cc1ccccc1OC[C@@H](O)CN[C@H](CO)Cc1c[nH]c2ccccc12` [compound 7898] returned an EC50 of 51 nM.
On the same count and under the same terms, the result for `Cc1ccccc1OC[C@H](O)CN[C@@H](CO)Cc1c[nH]c2ccccc12` [compound 7902] reads 7400 nM; that for `Cc1ccccc1OC[C@@H](O)CN[C@@H](CO)Cc1c[nH]c2ccccc12` [compound 7899], 135 nM.
Same read-out and setting: the value for `Cc1ccccc1OCC(O)CNC(C)(C)Cc1c[nH]c2ccccc12` (centres unmarked) [compound 7854] was 16 nM.

Still in this assay, the particulars now being: in vitro, compared with lung β2 (A5).
In the case of `NC(=O)Cc1ccc(OCC(O)CNCCc2c[nH]c3ccccc23)cc1` (centres unmarked) [compound 7748], the “affinity for β1 receptors (heart) versus β2 receptors (lungs)” value is reported as “clearly greater affinity for the β1 receptors (heart) than for the β2 receptors (lungs)”.

For the next assay, the system named is platelet aggregation. Nature of the assay: Anti-aggregating activity, BORN technique, plasma rich in platelets, ADP. The class given is cell-based, human. Conditions: human platelet-rich plasma. As for the experimental part:
The anti-aggregating activity of the CM 7743, 7744, 7824, 7854, 7859 and 7874 has been studied according to the BORN technique on plasma rich in platelets of human origin. ADP has been used as indicator of platelet aggregation. […] The required concentration for inhibiting by 50% the maximum rate of aggregation varies from 45 to 100 μM.
Turning to `CCC(=O)c1ccc(OCC(O)CNC(C)Cc2c[nH]c3ccccc23)c(Cl)c1` (centres unmarked) [compound 7743], the “inhibition of the platelet response with respect to the ADP” value is on record as “inhibited the platelet response”.
Take `Cc1ccccc1OCC(O)CNC(C)(C)Cc1c[nH]c2ccccc12` (centres unmarked) [compound 7854]: the “inhibition of the platelet response with respect to the ADP” value is on record as “inhibited the platelet response”.

The assay is the same for the next values; noted with them: human platelet-rich plasma, ADP; range over all products tested; read-out: concentration for inhibiting by 50% the maximum rate of aggregation.
For `CCC(=O)c1ccc(OCC(O)CNC(C)Cc2c[nH]c3ccccc23)c(Cl)c1` (centres unmarked) [compound 7743], the IC50 lay in the range of 45000 to 100000 nM.
Still for that read-out and setting: the result for `Cc1ccccc1OCC(O)CNC(C)(C)Cc1c[nH]c2ccccc12` (centres unmarked) [compound 7854] reads 45000 to 100000 nM.

A further assay addresses T3, β2 receptors (Rattus norvegicus, UniProt P10608).
T3 construct: lungs of rats (β2 receptors); from tissue; host or cells: rat lung plasma membranes
Nature of the assay: Displacement of 3H dihydroalprenolol, plasmic membranes of lungs of rats. The class given is binding. Conditions: rat lung membranes; 3H dihydroalprenolol 4×10^-9 M. On the procedure: as §1, §2
Turning to `Cc1ccccc1OC[C@@H](O)CN[C@H](CO)Cc1c[nH]c2ccccc12` [compound 7898], the concentration for a half-maximal effect (EC50) was found to be 64 nM.
The same measure, in the same setting: the value for `Cc1ccccc1OC[C@H](O)CN[C@@H](CO)Cc1c[nH]c2ccccc12` [compound 7902] was 3800 nM; that for `Cc1ccccc1OC[C@@H](O)CN[C@@H](CO)Cc1c[nH]c2ccccc12` [compound 7899] was 82 nM.
For the molecule `Cc1ccccc1OCC(O)CNC(C)(C)Cc1c[nH]c2ccccc12` (centres unmarked) [compound 7854], the EC50 came out at 3.7 nM.

The target of the next assay is T4, β adrenergic receptors (β2) (Canis lupus familiaris, UniProt P54833).
T4 construct: The dog is anaesthetized using sodium pentobarbital; from tissue; host or cells: whole anaesthetized dog (vasculature)
T4 sequence (P54833 whole entry): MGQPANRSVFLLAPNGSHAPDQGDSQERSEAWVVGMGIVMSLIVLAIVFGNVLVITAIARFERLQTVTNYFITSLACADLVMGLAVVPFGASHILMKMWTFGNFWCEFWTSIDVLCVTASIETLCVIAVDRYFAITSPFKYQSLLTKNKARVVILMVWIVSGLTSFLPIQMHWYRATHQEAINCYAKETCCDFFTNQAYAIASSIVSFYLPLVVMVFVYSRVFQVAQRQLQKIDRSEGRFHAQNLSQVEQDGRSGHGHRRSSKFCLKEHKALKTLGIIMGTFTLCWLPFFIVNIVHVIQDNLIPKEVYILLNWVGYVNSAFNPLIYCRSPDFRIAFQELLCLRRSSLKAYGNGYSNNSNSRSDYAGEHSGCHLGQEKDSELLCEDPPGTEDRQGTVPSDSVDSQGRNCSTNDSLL
Nature of the assay: Antagonism of the effects of isoprenaline, hypotension (β2), anaesthetized dog, IV. The class given is in vivo. Conditions: IV, 50% inhibition of isoprenaline hypotension, read-out: ID50 ISOPRENALINE β2. On the procedure:
(§3) The dog is anaesthetized using sodium pentobarbital, administered by the IV route at a dose of 30 mg/kg. A cannula placed in the saphenous vein allows the intra-venous injections of the products. The animal is submitted to intubation and is allowed to breathe spontaneously.
(§4) The cardiac frequency and the systemic arterial pressure are studied and the variations of these parameters are observed after intra-venous injection of the product to be tested. Each product is tested with increasing doses.
The antagonism of the products with respect to the β stimulant cardio-vascular effects of isoprenaline on the β adrenergic receptors has been sought. […] The last column indicates the cardioselectivity (β1 >β2) or a low cardioselectivity β1 ≥β2, or no cardioselectivity β1 <β2 and β1 =β2.
With `Cc1ccccc1OC[C@@H](O)CN[C@H](CO)Cc1c[nH]c2ccccc12` [compound 7898], the ED50 lay in the range of 0.3 to 1 mg/kg.
Consider `Cc1ccccc1OC[C@H](O)CN[C@@H](CO)Cc1c[nH]c2ccccc12` [compound 7902], for which the ED50 is more than 3 mg/kg.
On to `Cc1ccccc1OC[C@@H](O)CN[C@@H](CO)Cc1c[nH]c2ccccc12` [compound 7899], for which the ED50 lay within 0.3 to 1 mg/kg.
As for `NC(=O)Cc1ccc(OCC(O)CNCCc2c[nH]c3ccccc23)cc1` (centres unmarked) [compound 7748], the ED50 was more than 3 mg/kg.
In the case of `Cc1ccccc1OCC(O)CNC(C)(C)Cc1c[nH]c2ccccc12` (centres unmarked) [compound 7854], the ED50 is 0.02 to 0.1 mg/kg.

Staying with this assay, now noted: iv, read-out: ID50 ISOPRENALINE β2.
In the case of `CCC(=O)c1ccc(OCC(O)CNC(C)Cc2c[nH]c3ccccc23)c(Cl)c1` (centres unmarked) [compound 7743], the ED50 was not below 3 mg/kg.

Tested on in a further assay: not listed separately
In words: Cardiac frequency and arterial pressure in the anaesthetized dog after intravenous injection. Type of assay: in vivo. The conditions noted are these: i.v. route, anaesthetised dog. As for the experimental part:
as §3, §4
In the case of `Cc1ccccc1OC[C@@H](O)CN[C@H](CO)Cc1c[nH]c2ccccc12` [compound 7898], the “reduction in the peripheral arterial pressure” value is “reduction in the peripheral arterial pressure”.
The same measure, in the same setting: the value for `Cc1ccccc1OC[C@H](O)CN[C@@H](CO)Cc1c[nH]c2ccccc12` [compound 7902] was “reduction in the peripheral arterial pressure”; that for `Cc1ccccc1OC[C@@H](O)CN[C@@H](CO)Cc1c[nH]c2ccccc12` [compound 7899] was “reduction in the peripheral arterial pressure”.

For another assay, the target named is T5, α2 receptor (Rattus norvegicus, UniProt P22909).
T5 construct: plasmic membranes of rat brains; from tissue; host or cells: rat brain plasma membranes
T5 sequence (P22909 1-465): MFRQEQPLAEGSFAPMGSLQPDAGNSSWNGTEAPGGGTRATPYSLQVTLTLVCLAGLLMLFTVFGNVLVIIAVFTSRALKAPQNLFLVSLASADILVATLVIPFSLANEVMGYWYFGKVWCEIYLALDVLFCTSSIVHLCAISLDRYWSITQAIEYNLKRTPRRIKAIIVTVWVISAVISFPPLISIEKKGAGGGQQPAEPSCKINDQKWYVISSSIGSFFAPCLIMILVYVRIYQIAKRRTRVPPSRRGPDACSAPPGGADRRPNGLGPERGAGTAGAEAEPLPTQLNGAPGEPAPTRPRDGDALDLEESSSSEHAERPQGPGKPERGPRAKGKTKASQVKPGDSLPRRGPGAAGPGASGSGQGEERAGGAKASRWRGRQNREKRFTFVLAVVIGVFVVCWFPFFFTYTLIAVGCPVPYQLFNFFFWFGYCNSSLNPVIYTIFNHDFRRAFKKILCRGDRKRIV
In words: Displacement of 3H clonidine, plasmic membranes of rat brains. The class given is binding. The conditions noted are these: in vitro. As for the experimental part: as §1
(§5) The tests were made on plasmic membranes of rat brains, in the presence of ^3 H clonidine 1.2×10^-9 M (α2 receptor) and of ^3 H WB4101 (N-[2-(2.6dimethoxyphenoxy)ethyl]1.4benzodioxane-2-methylamine), 0.2×10^-9 M (α1 receptor).
On to `CCC(=O)c1ccc(OCC(O)CNC(C)Cc2c[nH]c3ccccc23)c(Cl)c1` (centres unmarked) [compound 7743], for which the “affinity for the receptor with clonidine (α2)” value is given as “no affinity”.
As to `NC(=O)Cc1ccc(OCC(O)CNCCc2c[nH]c3ccccc23)cc1` (centres unmarked) [compound 7748], the “affinity for the receptor with clonidine (α2)” value is recorded as “no affinity”.

Staying with this assay, now noted: rat brain membranes; 3H clonidine 1.2×10^-9 M.
`NC(=O)Cc1ccc(OCC(O)CNCCc2c[nH]c3ccccc23)cc1` (centres unmarked) [compound 7748]: the EC50 turned out to be 29.5 nM.
For `Cc1ccccc1OCC(O)CNC(C)(C)Cc1c[nH]c2ccccc12` (centres unmarked) [compound 7854], a half-maximal effect (EC50) was put at 6 nM.

Another assay relates to α adrenergic receptors. Nature of the assay: Antagonism of the effects of noradrenaline (pressure response), anaesthetized dog, IV. The class given is in vivo. Conditions: 50% inhibition of pressure response to noradrenaline. On the procedure:
as §3, §4
The antagonism of the products with respect to the vascular effects provoked by the IV administration of noradrenaline on the α adrenergic receptors has been sought. The results presented in Table III are expressed in ID50 : it is the dose (mg/kg) which provokes the inhibition by 50% of the pressure response due to the IV administration of noradrenaline.
As for `Cc1ccccc1OC[C@@H](O)CN[C@H](CO)Cc1c[nH]c2ccccc12` [compound 7898], the “ID50 NORADRENALINE α” value was more than 3 mg/kg.
Same read-out and setting: the value for `CCC(=O)c1ccc(OCC(O)CNC(C)Cc2c[nH]c3ccccc23)c(Cl)c1` (centres unmarked) [compound 7743] was 3 mg/kg; that for `Cc1ccccc1OC[C@H](O)CN[C@@H](CO)Cc1c[nH]c2ccccc12` [compound 7902] was more than 3 mg/kg.
The same measure, in the same setting: the result for `Cc1ccccc1OC[C@@H](O)CN[C@@H](CO)Cc1c[nH]c2ccccc12` [compound 7899] reads more than 3 mg/kg.
The same measure, in the same setting: the value for `NC(=O)Cc1ccc(OCC(O)CNCCc2c[nH]c3ccccc23)cc1` (centres unmarked) [compound 7748] was 1 mg/kg; that for `Cc1ccccc1OCC(O)CNC(C)(C)Cc1c[nH]c2ccccc12` (centres unmarked) [compound 7854] was 0.1 mg/kg.

In a further assay the target is α1 receptor. Nature of the assay: Displacement of 3H WB 4101, plasmic membranes of rat brains. The conditions noted are these: read-out: EC50 of DISPLACEMENT of 3H WB 4101; rat brain membranes; 3H WB4101 0.2×10^-9 M. Type of assay: binding. As for the experimental part: as §1, §5
Consider `NC(=O)Cc1ccc(OCC(O)CNCCc2c[nH]c3ccccc23)cc1` (centres unmarked) [compound 7748], for which the EC50 came out at 2.7 nM.
On the same count and under the same terms, the value for `Cc1ccccc1OCC(O)CNC(C)(C)Cc1c[nH]c2ccccc12` (centres unmarked) [compound 7854] was 320 nM.
